Laboratory results: the supplement of paper PMC12370961

Experiments:
Assay in all cases: differential drug sensitivity score (dDSS) relative to sarcoma reference cohort mean DSS (DSS units (0-100 scale difference)); higher = more selective sensitivity than reference sarcomas
Conditions in all cases: exposure time: 72 h; concentration range: 10-10000 nM
CDS-ZH001-2 = tested on: CDS-ZH001-2 (patient-derived CIC-DUX4 sarcoma tumoroid)
Method: (§1)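 Drug response profiling of patient-derived Ewing sarcoma and CIC::DUX4 sarcoma tumoroid models (or cells tested directly after isolation from the tumor, 'direct'). The DSS is the normalised AUC (0-100); dDSS is the sample DSS minus the mean DSS of a 34-sarcoma reference cohort profiled in the same lab.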

CDS-ZH001 = tested on: CDS-ZH001 (patient-derived CIC-DUX4 sarcoma tumoroid)
Method: as §1

CDS-ZH002 direct = tested on: CDS-ZH002 direct (CIC-DUX4 sarcoma cells right after isolation)
Method: as §1

CDS-ZH002 = tested on: CDS-ZH002 (patient-derived CIC-DUX4 sarcoma tumoroid)
Method: as §1

CDS-ZH003 = tested on: CDS-ZH003 (patient-derived CIC-DUX4 sarcoma tumoroid)
Method: as §1

ES-ZH001 = tested on: ES-ZH001 (patient-derived Ewing sarcoma tumoroid)
Method: as §1

ES-ZH002 = tested on: ES-ZH002 (patient-derived Ewing sarcoma tumoroid)
Method: as §1

ES-ZH004 = tested on: ES-ZH004 (patient-derived Ewing sarcoma tumoroid)
Method: as §1

ES-ZH007 = tested on: ES-ZH007 (patient-derived Ewing sarcoma tumoroid)
Method: as §1

ES-ZH008 = tested on: ES-ZH008 (patient-derived Ewing sarcoma tumoroid)
Method: as §1

ES-ZH009 = tested on: ES-ZH009 (patient-derived Ewing sarcoma tumoroid)
Method: as §1

ES-ZH016 direct = tested on: ES-ZH016 direct (Ewing sarcoma cells right after isolation)
Method: as §1

ES-ZH016 = tested on: ES-ZH016 (patient-derived Ewing sarcoma tumoroid)
Method: as §1

Row | SMILES | differential drug sensitivity score (CDS-ZH001-2) | differential drug sensitivity score (CDS-ZH001) | differential drug sensitivity score (CDS-ZH002 direct) | differential drug sensitivity score (CDS-ZH002) | differential drug sensitivity score (CDS-ZH003) | differential drug sensitivity score (ES-ZH001) | differential drug sensitivity score (ES-ZH002) | differential drug sensitivity score (ES-ZH004) | differential drug sensitivity score (ES-ZH007) | differential drug sensitivity score (ES-ZH008) | differential drug sensitivity score (ES-ZH009) | differential drug sensitivity score (ES-ZH016 direct) | differential drug sensitivity score (ES-ZH016)
1 | CN(C)/N=N/c1[nH]cnc1C(N)=O [Dacarbazine] | -0.7 | -0.8 | -0.8 | -0.8 | -0.7 | -0.7 | 7.5 | 0.1 | -0.8 | 2.8 | 0.9 | -0.8 | -0.8
2 | Nc1ccn([C@@H]2O[C@H](CO)[C@@H](O)C2(F)F)c(=O)n1 [Gemcitabine] | 1.8 | 4.5 | -7 | -4.9 | -7 | 23.1 | 24.8 | 20.1 | 24.5 | 18.7 | 19.6 | 9.7 | 22.4
3 | CN1CCN(c2ccc(C(=O)Nc3n[nH]c4ccc(Cc5cc(F)cc(F)c5)cc34)c(NC3CCOCC3)c2)CC1 [Entrectinib] | 7.7 | 2 | -2.3 | 0.2 | -4.3 | 3 | 8.1 | 12.9 | -1.1 | 6 | 2 | 10.8 | 2.3
4 | NC1(c2ccc(-c3nc4ccn5c(=O)[nH]nc5c4cc3-c3ccccc3)cc2)CCC1 [MK-2206] | 10.4 | 3.7 | 0.7 | -3.1 | -2.3 | 1.8 | 14 | 6.8 | 3.4 | 13.3 | 4.8 | 15.8 | 0.5
5 | CC[C@H](Nc1ncnc2[nH]cnc12)c1nc2cccc(F)c2c(=O)n1-c1ccccc1 [Idelalisib] | -1.3 | -1.4 | -1.5 | -1.4 | 2.9 | -1.5 | 1.3 | -1.5 | -1.5 | -1.5 | -1.5 | -1.5 | 1.5
6 | C[C@H](Nc1ncnc2nc[nH]c12)c1cc2cccc(Cl)c2c(=O)n1-c1ccccc1 [Duvelisib] | 4.4 | 4.2 | 0.6 | 1.2 | -1.2 | -5.6 | 1.9 | -4.4 | -2.7 | -1.1 | 9.1 | 4.2 | 3.4
7 | CNC(=O)c1ccccc1Sc1ccc2c(/C=C/c3ccccn3)n[nH]c2c1 [Axitinib] | -0.8 | -0.9 | -0.9 | -0.9 | 6 | -0.9 | 2.2 | -0.9 | -0.9 | -0.9 | 0.4 | 3.8 | -0.9
8 | N[C@@H]1CCCN(c2c(/C=C3\SC(=O)NC3=O)cccc2-c2ccccc2)C1 [AZD1208] | 2 | 8.2 | 1.1 | 1.2 | 13.6 | -0.4 | 0 | -0.8 | -2.9 | 1.8 | 3.6 | -2.9 | -2.9
9 | CCN(CC)CCNC(=O)c1c(C)[nH]c(/C=C2\C(=O)Nc3ccc(F)cc32)c1C [Sunitinib] | 3.9 | 3.2 | -2 | -1.4 | -3.3 | 7.6 | 8.5 | 2.3 | 2.2 | -0.8 | 1.7 | 6.4 | 0.7
10 | O=C(NCC1CCOCC1)c1cnc(Nc2ccc(Cl)cc2Cl)nc1C(F)(F)F | -0.5 | -0.5 | -0.5 | -0.5 | -0.5 | -0.5 | -0.5 | -0.5 | -0.5 | -0.5 | -0.5 | -0.5 | -0.5
11 | Cc1sc2c(c1C)C(c1ccc(Cl)cc1)=N[C@@H](CC(=O)Nc1ccc(O)cc1)c1nnc(C)n1-2 [Birabresib] | 1 | -1.1 | 1.5 | -11.1 | -0.8 | -5.6 | 0.3 | -6.7 | -4.1 | 5.9 | 11.9 | 11.1 | -7.9
12 | COCC[n+]1c2c(n(Cc3cnccn3)c1C)C(=O)c1ccccc1C2=O [YM155] | 2.5 | -2 | -0.4 | -4.4 | 9.6 | 5.7 | 9.6 | 9.9 | 10.1 | 6.8 | 9.3 | 2.3 | 10.2
13 | O=P1(NCCCl)OCCCN1CCCl (configuration not stated) [Ifosfamide] | -1 | -1 | -1 | -1 | -1 | 0.6 | 5.4 | 5.5 | -1 | 1.6 | -1 | -1 | -1
14 | COc1cccc(-c2cc(F)ccc2[C@H]2Cc3nc(N)nc(C)c3C(=O)N2)n1 [HSP-990] | 0.3 | 1.4 | -4 | -9.2 | 1.3 | 3.8 | 8.8 | -0.8 | 1.2 | 7.1 | 6 | 4.9 | 3.4
15 | NS(=O)(=O)OC[C@@H]1C[C@@H](n2ccc3c(N[C@H]4CCc5ccccc54)ncnc32)C[C@@H]1O [Pevonedistat] | -2.1 | 8.7 | 7.6 | -1.6 | 0.7 | 11.4 | 9.3 | 2.4 | 3.6 | 5.9 | 2.9 | 1.9 | 8.3
16 | Cc1cnc(NC(=O)Nc2cc(Br)c(C)cc2OC[C@@H]2CNCCO2)cn1 [Rabusertib] | 7.2 | 8.8 | 2.4 | 1.8 | -4.9 | 6 | 10.7 | 1.2 | 8.8 | 12.5 | 6.1 | 5.6 | 8.7
17 | COc1cc(OC)cc(N(CCNC(C)C)c2ccc3ncc(-c4cnn(C)c4)nc3c2)c1 [Erdafitinib] | -0.4 | -1.4 | -4.5 | -4 | -8 | -2.3 | 7.8 | 5 | -2.5 | 10.1 | -1.7 | 12.1 | -3.7
18 | C[C@H]1CNC(=O)c2cnn3ccc(nc23)N[C@H](C)c2cc(F)ccc2O1 [Repotrectinib] | 6.2 | -0.3 | 0.2 | -0.4 | -1.4 | 0.2 | 5 | 2.9 | -1.3 | 10.8 | 1.8 | 7.7 | 2.1
19 | O=c1[nH]c2ccccc2n1C1CCN(CCCC(c2ccc(F)cc2)c2ccc(F)cc2)CC1 [Pimozide] | 6.3 | 3.4 | -2.1 | 0.9 | 5.1 | -4.3 | -2.4 | -3.1 | -2.3 | -3.6 | 7.1 | 7.3 | 5.5
20 | COC(=O)C[C@](O)(CCCC(C)(C)O)C(=O)O[C@@H]1C(OC)=C[C@]23CCCN2CCc2cc4c(cc2[C@H]13)OCO4 [Homoharringtonine] | 10.7 | 10.1 | 10 | 6.3 | 1 | 3.5 | 9.7 | 1.9 | 10 | 13.3 | 6 | 2.7 | 3.1
21 | C=CC(=O)N1CCC[C@@H](n2nc(-c3ccc(Oc4ccccc4)cc3)c3c(N)ncnc32)C1 [Ibrutinib] | -2.7 | -2.7 | -2.1 | -2.7 | -2.7 | -2.1 | 0.4 | -2.5 | -2.7 | -2.2 | -2.7 | 1.4 | -2.7
22 | CO/N=C1\C[C@]2(C[C@@H]3C[C@@H](C/C=C(\C)C[C@@H](C)/C=C/C=C4\CO[C@@H]5[C@H](O)C(C)=C[C@@H](C(=O)O3)[C@]45O)O2)O[C@H](/C(C)=C/C(C)C)[C@H]1C [Moxidectin] | -5 | 0.1 | 0 | -3.7 | -4.8 | 0.2 | 3.7 | 0.9 | -0.2 | -1.8 | 3.8 | 0 | -0.4
23 | CO[C@@]12[C@H](COC(N)=O)C3=C(C(=O)C(C)=C(N)C3=O)N1C[C@@H]1N[C@@H]12 [Mitomycin] | 1.6 | -1.3 | -3.8 | -4.7 | 0.6 | 14.4 | 22.4 | 10.3 | 9.5 | 18.4 | 6.6 | 15.5 | 17.3
24 | N#Cc1ccnc(N2C(=O)CC[C@H]2C(=O)N(c2cncc(F)c2)[C@H](C(=O)NC2CC(F)(F)C2)c2ccccc2Cl)c1 [Ivosidenib] | -2.1 | -2.1 | -2.1 | -2.1 | -2.1 | -2.1 | -2.1 | -2.1 | -2.1 | 7.8 | -2.1 | 18.2 | -2.1
25 | O=C(Cc1ccc(-c2ccc(OCCN3CCOCC3)cc2)cn1)NCc1ccccc1 [Tirbanibulin] | 1.4 | 8.2 | 1.7 | 4 | -7.7 | 9.3 | 13.5 | 5.9 | 4.5 | 6.4 | 10.5 | 7.2 | 11.4
26 | CO[C@@H]1[C@H](N(C)C(=O)c2ccccc2)C[C@H]2O[C@]1(C)n1c3ccccc3c3c4c(c5c6ccccc6n2c5c31)C(=O)NC4 [Midostaurin] | 2.2 | -1.3 | 0.6 | -4.2 | -0.3 | 5.9 | 3.4 | -11 | -1.6 | 5.8 | 7.9 | 7.8 | 3.1
27 | CN(Cc1cnc2nc(N)nc(N)c2n1)c1ccc(C(=O)N[C@@H](CCC(=O)O)C(=O)O)cc1 [Methotrexate] | -10.9 | 0 | -10.4 | -4.9 | -14 | 11.6 | -0.6 | -9.9 | -3.6 | -6.2 | 21.6 | -5.4 | 4.4
28 | CCC1=C[C@@H]2CN(C1)Cc1c([nH]c3ccccc13)[C@@](C(=O)OC)(c1cc3c(cc1OC)N(C)[C@H]1[C@@](O)(C(=O)OC)[C@H](OC(C)=O)[C@]4(CC)C=CCN5CC[C@]31[C@@H]54)C2 [Vinorelbine] | 9.1 | 8.7 | 4.3 | 6.9 | 0.2 | 23.7 | 22.8 | 15.4 | 15.8 | 14.7 | 24.7 | 12.2 | 20.4
29 | Cc1nc(NC(=O)N2CCC[C@H]2C(N)=O)sc1-c1ccnc(C(C)(C)C(F)(F)F)c1 [Alpelisib] | 4.9 | 2.9 | -2 | -3 | 0.2 | -3.7 | 11 | 0.8 | -1.9 | 11 | 2.5 | 0.9 | 1
